In PubChem BioAssay (NCI):
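Assay format: 96-well plates, 48-hour exposure. The concentration for full growth arrest is given as TGI.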

Legend:
Test in all cases: growth of human tumour cells (NCI), 48 h
[1] = test system: SF-295 CNS
[2] = test system: HCT-116 colon
[3] = test system: HOP-62 NSCLC
[4] = test system: RXF-631 renal
[5] = test system: COLO 205 colon
[6] = test system: LOX IMVI melanoma
[7] = test system: CCRF-CEM leukemia
[8] = test system: MOLT-4 leukemia
[9] = test system: SF-539 CNS
[10] = test system: UACC-257 melanoma
[11] = test system: OVCAR-3 ovarian
[12] = test system: M14 melanoma
[13] = test system: OVCAR-5 ovarian
[14] = test system: HL-60(TB) leukemia
[15] = test system: LXFL 529 NSCLC
[16] = test system: OVCAR-4 ovarian
[17] = test system: SK-MEL-5 melanoma
[18] = test system: HT29 colon
[19] = test system: IGROV1 ovarian
[20] = test system: UO-31 renal
[21] = test system: OVCAR-8 ovarian
[22] = test system: ACHN renal
[23] = test system: NCI-H226 lung
[24] = test system: HOP-92 NSCLC
[25] = test system: HCT-15 colon
[26] = test system: SNB-75 CNS
[27] = test system: 786-0 renal
[28] = test system: NCI-H23 lung
[29] = test system: TK-10 renal
[30] = test system: SNB-78 CNS
[31] = test system: SK-OV-3 ovarian
[32] = test system: HOP-18 NSCLC
[33] = test system: HCC-2998 colon
[34] = test system: NCI-H522 lung
[35] = test system: SF-268 CNS
[36] = test system: CAKI-1 renal
[37] = test system: KM12 colon
[38] = test system: UACC-62 melanoma
[39] = test system: MALME-3M melanoma
[40] = test system: A549 NSCLC
[41] = test system: DLD-1 colon
[42] = test system: SN12C renal
[43] = test system: K-562 leukemia
[44] = test system: RXF 393 renal
[45] = test system: SR leukemia
[46] = test system: KM20L2 colon
[47] = test system: NCI-H460 lung
[48] = test system: M19-MEL melanoma
[49] = test system: EKVX NSCLC
[50] = test system: SK-MEL-28 melanoma
[51] = test system: U251 CNS
[52] = test system: RPMI-8226 leukemia
[53] = test system: SW-620 colon
[54] = test system: SK-MEL-2 melanoma
[55] = test system: SNB-19 CNS

Measured: TGI

COc1cc2ccc3c4ccccc4cnc3c2cc1OC
> 100 µM: all assays above
